Six compounds from PubChem BioAssay (NCI) can be followed below.

Values joined by “and” are separate entries in the source; they are usually repeats but may differ in a detail not shown here. Equal entries are not always repeated.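 All cell lines were grown in 96-well plates and treated with compound for 48 hours. GI50 marks 50% less growth. TGI: concentration producing complete growth inhibition.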 Where only a bound is given, the exact number is not on record here.

Test systems include LOX IMVI melanoma; PC-3 prostate; HOP-92 NSCLC; 786-0 renal; SF-539 CNS; SK-MEL-5 melanoma; RXF 393 renal; HL-60(TB) leukemia; HOP-62 NSCLC; SK-MEL-28 melanoma.
Holding throughout (test): DTP human tumour cell line panel, 48 h

With `COC(=O)NC1C(C)OC(OC2C/C=C(/C)C3C=CC4C(OC5CC(OC6CC(O)C(OC7CC(O)C(OC)C(C)O7)C(C)O6)C(O)C(C)O5)C(C)CC(C)C4C3(C)/C(O)=C3\C(=O)OC4(CC(C)C(CO)=CC4/C=C\2C)C3=O)CC1(C)[N+](=O)[O-]` (configuration not stated), the TGI (in general, the concentration giving total growth inhibition) in the experiment on LOX IMVI melanoma is 28 µM; in the experiment with PC-3 prostate, 50 µM; in the experiment with HOP-92 NSCLC, 19.7 µM and 32.7 µM; in the experiment with 786-0 renal it was 21.9 µM and 32.3 µM; in the experiment on SF-539 CNS, 24.9 µM and 37.7 µM; in the experiment on SK-MEL-5 melanoma, 18.7 µM and 33.2 µM. Further, the TGI in the experiment on RXF 393 renal was 21.4 µM and 30.7 µM; with HL-60(TB) leukemia, 21.3 µM and 24.2 µM; in the experiment on HOP-62 NSCLC, 18.4 µM and 46.3 µM; in the experiment with SK-MEL-28 melanoma, 16.6 µM and 36 µM. The GI50 (in general, the concentration giving 50% growth inhibition) in the experiment on HOP-92 NSCLC is 9.95 µM; in the experiment with 786-0 renal it was 16.8 µM; in the experiment on SF-539 CNS it was 11600 nM; with SK-MEL-5 melanoma, 10900 nM; with RXF 393 renal, 8.97 µM; with HL-60(TB) leukemia, 7940 nM. The GI50 is 9620 nM in the experiment on HOP-62 NSCLC and 9 µM in the experiment with SK-MEL-28 melanoma.

`COC(=O)Nc1nc2ccc(Oc3ccc(NC(=O)Nc4cccc(C(=O)O)c4)cc3)cc2[nH]1`: the GI50 is over 14600 nM with LOX IMVI melanoma; 8440 nM with PC-3 prostate; over 25 µM in the experiment with HOP-92 NSCLC; 10.5 µM with 786-0 renal; 4950 nM in the experiment with SF-539 CNS; 3240 nM in the experiment with SK-MEL-5 melanoma. The GI50 in the experiment with RXF 393 renal is 3.37 µM; in the experiment on HL-60(TB) leukemia, 6100 nM; in the experiment with HOP-62 NSCLC, 7090 nM; in the experiment on SK-MEL-28 melanoma, 10 µM. For the same compound, the TGI with LOX IMVI melanoma is over 25 µM; with PC-3 prostate it was over 25 µM; in the experiment on HOP-92 NSCLC, over 25 µM; in the experiment on 786-0 renal, over 25 µM; with SF-539 CNS, over 20.9 µM; in the experiment on SK-MEL-5 melanoma, over 21 µM. In addition, the TGI in the experiment on RXF 393 renal was 10.9 µM; with HL-60(TB) leukemia, 17.4 µM; with HOP-62 NSCLC, over 22 µM; in the experiment with SK-MEL-28 melanoma, over 25 µM.

As for `C/C=C(\C)C(=O)N[C@H]1CC[C@]2(C)C3CC[C@@]4(C)C(CC[C@@H]4C(C)N(C)C)C3CCC2[C@H]1OC(C)=O` (some centres not stated), the GI50 in the experiment on LOX IMVI melanoma is 1420 nM; with PC-3 prostate it was 2050 nM; in the experiment with HOP-92 NSCLC, 1.24 µM; in the experiment on 786-0 renal, 1.54 µM; with SF-539 CNS it was 1160 nM; with SK-MEL-5 melanoma, 1050 nM. The GI50 in the experiment on RXF 393 renal was 1.57 µM; with HL-60(TB) leukemia, 1880 nM; in the experiment with HOP-62 NSCLC, 1760 nM; in the experiment with SK-MEL-28 melanoma, 1.59 µM. For the same compound, the TGI was 2.78 µM with LOX IMVI melanoma; 6.59 µM with PC-3 prostate; 3.47 µM with HOP-92 NSCLC; 2.95 µM in the experiment on 786-0 renal; 2.53 µM in the experiment with SF-539 CNS; 2.3 µM in the experiment on SK-MEL-5 melanoma. Besides, the TGI with RXF 393 renal is 3.03 µM; in the experiment with HL-60(TB) leukemia, 4.52 µM; in the experiment on HOP-62 NSCLC, 3.46 µM; in the experiment on SK-MEL-28 melanoma it was 3.24 µM.

Regarding `COc1ccc2c(c1)C(=O)/C(=C/c1cccc(OCC(=O)Nc3nc4c(s3)CCCC4)c1)O2`, the GI50 with LOX IMVI melanoma was 24.8 nM; with PC-3 prostate, 285 nM; with HOP-92 NSCLC, 0.18 µM; with 786-0 renal, 0.15 µM; with SF-539 CNS, 1320 nM; with SK-MEL-5 melanoma it was 6080 nM. For the same compound, the GI50 with RXF 393 renal was 0.583 µM; with HL-60(TB) leukemia it was 241 nM; in the experiment on HOP-62 NSCLC, 290 nM; in the experiment with SK-MEL-28 melanoma, 1.58 µM. The TGI with LOX IMVI melanoma turned out to be 0.066 µM; in the experiment on PC-3 prostate, 1.01 µM; in the experiment with HOP-92 NSCLC, 0.372 µM; in the experiment on 786-0 renal it was 0.346 µM; in the experiment with SF-539 CNS it was 2.69 µM; with SK-MEL-5 melanoma, 19.4 µM. Further, the TGI with RXF 393 renal amounted to 1.58 µM; in the experiment with HL-60(TB) leukemia, 0.681 µM; in the experiment on HOP-62 NSCLC, 10.4 µM; in the experiment on SK-MEL-28 melanoma, 3.22 µM.

Turning to `COc1ccc(N(CC(=O)NCCC[Te]c2ccccc2)C(=O)c2ccccc2)cc1`, the GI50 with LOX IMVI melanoma was 3690 nM; with PC-3 prostate it was 2680 nM; in the experiment with HOP-92 NSCLC, 4.1 µM; with 786-0 renal, 5.09 µM; with SF-539 CNS, 2300 nM; with SK-MEL-5 melanoma, 2400 nM. Moreover, the GI50 in the experiment with RXF 393 renal was 12 µM; in the experiment on HL-60(TB) leukemia, 2120 nM; in the experiment with HOP-62 NSCLC it was 2410 nM; in the experiment with SK-MEL-28 melanoma, 4.33 µM. The TGI came to 14.3 µM in the experiment with LOX IMVI melanoma; 12.6 µM in the experiment on PC-3 prostate; 19.6 µM in the experiment on 786-0 renal; 6 µM with SF-539 CNS; 6.08 µM in the experiment with SK-MEL-5 melanoma; 30.3 µM in the experiment with RXF 393 renal. The values for the TGI with HL-60(TB) leukemia, in the experiment with HOP-62 NSCLC and with SK-MEL-28 melanoma were 5.73 µM, 5.32 µM and 15.6 µM, respectively.

With `Oc1ccc2cc(Br)ccc2c1-c1c(O)ccc2cc(Br)ccc12`, the GI50 in the experiment on LOX IMVI melanoma was 1810 nM; in the experiment with PC-3 prostate it was 3240 nM; in the experiment on HOP-92 NSCLC, 3.01 µM; in the experiment with 786-0 renal, 2.38 µM; in the experiment with SF-539 CNS, 3340 nM; in the experiment with SK-MEL-5 melanoma, 1870 nM. The GI50 was 2.79 µM in the experiment with RXF 393 renal, 2870 nM in the experiment on HL-60(TB) leukemia, 2620 nM in the experiment on HOP-62 NSCLC and 3.68 µM in the experiment with SK-MEL-28 melanoma. The TGI amounted to 3.41 µM with LOX IMVI melanoma; 13 µM with PC-3 prostate; 7.93 µM in the experiment with HOP-92 NSCLC; 4.64 µM in the experiment with 786-0 renal; 12 µM in the experiment with SF-539 CNS; 3.74 µM with SK-MEL-5 melanoma. Further, the TGI was 5.93 µM with RXF 393 renal, 8.6 µM in the experiment on HL-60(TB) leukemia, 11.1 µM in the experiment on HOP-62 NSCLC and 13.1 µM in the experiment on SK-MEL-28 melanoma.
